Experimental data reported in ChEMBL document CHEMBL4725287, “An in silico mechanistic insight into HDAC8 activation facilitates the discovery of new small-molecule activators” (Bioorg Med Chem, 2020).

Legend:
[1] = molecular target: T1, Histone deacetylase 8 (Homo sapiens) (UniProt Q9BY41); assay: Substrate-dependent activation of HDAC8 (unknown origin) assessed as fold activation using FLUOR DE LYS as substrate at 20 uM incubated for 30 mins by fluorescence based assay relative to control; settings: filed as activator
T1 sequence (whole entry): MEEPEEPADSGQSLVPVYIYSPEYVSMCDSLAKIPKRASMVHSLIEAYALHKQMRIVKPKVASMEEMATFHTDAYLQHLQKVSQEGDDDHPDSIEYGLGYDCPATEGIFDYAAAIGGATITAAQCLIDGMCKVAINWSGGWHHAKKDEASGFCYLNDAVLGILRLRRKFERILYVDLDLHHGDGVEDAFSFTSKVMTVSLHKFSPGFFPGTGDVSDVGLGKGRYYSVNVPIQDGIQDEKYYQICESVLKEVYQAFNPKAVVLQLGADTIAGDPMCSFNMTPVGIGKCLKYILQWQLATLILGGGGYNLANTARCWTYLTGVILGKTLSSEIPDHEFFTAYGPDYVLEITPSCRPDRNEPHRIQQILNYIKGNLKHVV

Histone deacetylase 8 = molecular target: T2, Histone deacetylase 8 (Homo sapiens, UniProt Q9BY41); assay: Substrate-dependent activation of HDAC8 (unknown origin) using FLUOR DE LYS as substrate incubated for 30 mins by fluorescence based assay
T2 sequence (Q9BY41 whole entry): T1 sequence (whole entry)

Structure (SMILES) | fold change (FC) [1] | EC50 (Histone deacetylase 8) [µM]
Nc1ncccc1O | 1.3 | 
O=C(O)c1cccnc1S | 1.3 | 
Oc1ccccc1-c1nc2ccccc2s1 | 1.3 | 
Sc1nc2ccccc2o1 | 1.3 | 
Oc1cccc2cccnc12 [OXYQUINOLINE] | 1.3 | 11.1
O=C(O)c1ccccc1S [THIOSALICYLIC ACID] | 1.3 | 16.9
